Experimental data as given in article PMC10999543, “Identification of kinase modulators as host-directed therapeutics against intracellular methicillin-resistant Staphylococcus aureus” (Frontiers in Cellular and Infection Microbiology, 2024).

Legend:
[1] = tested on: HeLa cells; test: Compound screen by flow cytometry: HeLa cell count as surrogate readout of cell viability (z-scoreHeLa); assay type: cell-based, human; conditions: for cell count rep 1 / z-scoreHeLa rep 1: replicate 1; for cell count rep 2 / z-scoreHeLa rep 2: replicate 2; for cell count rep 3 / z-scoreHeLa rep 3: replicate 3; for z-scoreHeLa mean: mean of 3 replicates
Outline: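 The viability surrogate was the count of fixed HeLa cells by flow cytometry, converted to z-scores against DMSO controls with values deviating two-fold excluded. Before counting, cells had been infected with MRSA for 1 h and cleared of extracellular bacteria with gentamicin. They were then exposed overnight to kinase inhibitors in triplicate.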

[2] = tested on: intracellular MRSA in MelJuSo cells; test: Gentamicin protection assay with CFU count in MRSA-infected MelJuSo cells; assay type: cell-based, Staphylococcus aureus; conditions: 10 µM, n=7
Protocol: (§1) The cells were resuspended in cell culture medium without antibiotics, seeded with 10,000 cells/well into Costar flat-bottom 96-well plates (Corning, Amsterdam, the Netherlands), and were incubated overnight at 37°C/5% CO2. The next day, the bacteria were centrifuged at ≥1800 g for 15 min and resuspended in cold PBS + 5 mM ethylenediaminetetraacetic acid (EDTA). The number of CFUs present in the bacterial suspension was estimated from the optical density at 600 nm (OD600) by assuming 8x10^8 CFUs to be present in a bacterial suspension with OD600 = 1, based on prior titrations. The bacterial suspension was diluted in cell culture medium without antibiotics and added to the cells. Accuracy of the multiplicity of infection (MOI) was validated by plating serial dilutions of the MRSA inoculums on Difco TS agar plates (BD Biosciences). The calculated mean MOI throughout all experiments was 6.8 ± 4.6 (mean ± SD). Infected cells were centrifuged for 3 min at 150 g and incubated for 1 hour at 37°C/5% CO2. Next, the cells were incubated with fresh cell culture medium supplemented with 30 µg/ml gentamicin sulphate (Lonza BioWhittaker, Basel, Switzerland) for 15 min at 37°C/5% CO2 to kill residual extracellular bacteria. Infected cells were incubated overnight at 37°C/5% CO2 in cell culture medium in the presence of kinase inhibitors and 5 µg/ml gentamicin sulphate-containing medium to prevent the growth of extracellular bacteria. The solvent of the compounds, DMSO, was used at equal % v/v as a negative control. For the screen, each compound was tested in triplicate, on separate cell culture plates, resulting in triplicate values for each kinase inhibitor.
(§2) Infected cells were lysed in sterile water + 0.05% UltraPure SDS solution (Invitrogen, ThermoFisher Scientific) to release intracellular bacteria. Bacterial suspensions and lysates of cells infected with MRSA were 5-fold serially diluted and 10-μl drops were plated on square TS agar plates. The plates were left to dry and incubated overnight at 37°C/5% CO2.

[3] = tested on: intracellular MRSA in MCF7 cells; test: Gentamicin protection assay with CFU count in MRSA-infected MCF7 cells; assay type: cell-based, Staphylococcus aureus; conditions: 10 µM, n=7
Protocol: as §1, §2

[4] = tested on: planktonic MRSA cultures; test: Bacterial growth assay in cell-free planktonic MRSA cultures (OD600); assay type: cell-based, Staphylococcus aureus; conditions: Supplementary Figure S5
Protocol: […] The absorbance was measured using an EnVision plate reader (PerkinElmer). The plates were incubated at 37°C overnight and the absorbance was measured again the next day. Real-time measurement of bioluminescence by the MRSA-lux strain was performed in a white flat-bottom 96-wells plate using a SpectraMax i3x plate reader and an integration time set at 9000 ms.

[5] = tested on: AMPK; test: Phosphorylation of AMPK at Thr172 by western blot; assay type: cell-based, human; conditions: MRSA-infected HeLa cells
Protocol: (§3) HeLa cells were seeded with 100,000 cells/well in 24-wells plates. In short, the cells were lysed in EBSB buffer (10% v/v glycerol, 3% SDS, 100 mM Tris-HCl, pH 6.8) supplemented with one tablet of cOmplete EDTA-free protease inhibitor cocktail (Sigma-Aldrich) and proteins were denaturated at 95°C for 5 min. Protein concentrations were determined using a Pierce™ BCA protein assay kit (Thermo Fisher Scientific). Samples were diluted in Laemmli sample buffer and loaded on a 15-well 4–20% Mini-PROTEAN® TGX™ Precast Protein Gel for electrophoresis (both from Bio-Rad, Hercules, CA, USA). […] Membranes were blocked for 1h in PBS supplemented with 5% w/v non-fat dry milk. Next, the membranes were cut and each protein was separately stained with primary antibodies against actin and LC3B in PBS supplemented with 5% w/v non-fat dry milk, or against AMPKα and AMPKα-pThr172 in PBS supplemented with 5% BSA (antibodies listed in Supplementary Table S1 ). Membranes were stained with secondary antibodies in PBS supplemented with 5% w/v non-fat dry milk. After each staining, membranes were washed four times in PBS + 0.1% Tween20. Prior to revelation, the membranes were incubated for 10 min in enhanced chemiluminescence (ECL) Prime Western Blotting System reagent (GE Healthcare, Hoevelaken, The Netherlands). […] Protein bands were quantified using Fiji software ([Schindelin et al., 2012]).

[6] = tested on: LC3; test: Autophagosome formation by western blot (LC3-II/LC3-I); assay type: cell-based, human; conditions: MRSA-infected HeLa cells
Protocol: as §3

[7] = tested on: intracellular MRSA in A549 cells; test: Gentamicin protection assay with CFU count in MRSA-infected A549 cells; assay type: cell-based, Staphylococcus aureus; conditions: 10 µM, n=7
Protocol: as §1, with “Infected cells were incubated overnight at 37°C/5% CO2 in cell culture medium in the presence of kinase inhibitors and 5 µg/ml gentamicin sulphate-containing medium to prevent the growth of extracellular bacteria. The solvent of the compounds, DMSO, was used at equal % v/v as a negative control. For the screen, each compound was tested in triplicate, on separate cell culture plates, resulting in triplicate values for each kinase inhibitor.” left out

[8] = tested on: intracellular MRSA in PMA-differentiated THP-1 cells; test: Gentamicin protection assay with CFU count in MRSA-infected PMA-differentiated THP-1 cells; assay type: cell-based, Staphylococcus aureus; conditions: 10 µM, n=6
Protocol: as §1, with “Infected cells were incubated overnight at 37°C/5% CO2 in cell culture medium in the presence of kinase inhibitors and 5 µg/ml gentamicin sulphate-containing medium to prevent the growth of extracellular bacteria. The solvent of the compounds, DMSO, was used at equal % v/v as a negative control. For the screen, each compound was tested in triplicate, on separate cell culture plates, resulting in triplicate values for each kinase inhibitor.” left out

[9] = tested on: HER2; design: method as in Elkins et al., 2016; conditions: PKIS1, Caliper assay, ref Elkins et al., 2016; cited from earlier work
[10] = PKIS compounds raw data, HeLa cell count
[11] = compound screen, HeLa cell count
[12] = PKIS compound screen raw data, HeLa cell count
[13] = PKIS compound screen, HeLa cell count
[14] = PKIS compound screen, Yes/No call

## COc1ccc2[nH]c3c4[nH]c5ccc(OC)cc5c4c4c(c3c2c1)C(=O)NC4=O [GW296115X]
[1]; [10]
  cell count rep 1: 4446
  cell count rep 2: 4236
  cell count rep 3: 6955
[1]; Yes/No call from z-scoreHeLa
  cell death: No
[1]; [11]
  z-scoreHeLa mean: -0.11
  z-scoreHeLa rep 1: -0.30
  z-scoreHeLa rep 2: -0.0242
  z-scoreHeLa rep 3: -0.00316
[2]
  reduction in bacterial burden (CFU): 88%
[3]
  reduction in bacterial burden (CFU): 75%
[4]; planktonic cultures
  direct antibiotic effects against MRSA: not the case
[5]
  AMPK phosphorylation at Thr172: significantly increased AMPK phosphorylation at Thr172
[6]; in the presence of bafilomycin A1 (100 nM)
  accumulation of LC3-II: strong accumulation of LC3-II
[6]; without bafilomycin
  formation of LC3-II: not affected

## CC(C)c1nc(-c2cccc(NS(=O)(=O)c3c(F)cccc3F)c2F)c(-c2ccnc(Nc3ccc(N4CCOCC4)nc3)n2)s1 [GSK2008607A]
[1]; [12]
  cell count rep 1: 21178
  cell count rep 2: 14585
  cell count rep 3: 12213
[1]; [13]
  z-scoreHeLa mean: -1.56
  z-scoreHeLa rep 1: -1.53
  z-scoreHeLa rep 2: -1.83
  z-scoreHeLa rep 3: -1.31
[1]; [14]
  cell death: No
[1]; PKIS compound screen, Yes/No call on z-scoreHeLa
  cell death: No
[1]; PKIS compound screen
  z-scoreHeLa mean: -1.34
  z-scoreHeLa rep 1: -1.52
  z-scoreHeLa rep 2: -1.39
  z-scoreHeLa rep 3: -1.10
[1]; [10]
  cell count rep 1: 3519
  cell count rep 2: 3908
  cell count rep 3: 3860
[2]
  reduction in bacterial burden (CFU): 81%
[7]
  activity on bacterial burden (CFU): not active
[3]
  reduction in bacterial burden (CFU): reductions in CFU counts
[8]
  effect on CFU counts: reductions in CFU counts

## O=S(=O)(CCNCc1ccc(-c2ccc3ncnc(Nc4ccc(OCc5cccc(F)c5)c(Cl)c4)c3c2)o1)c1ccccc1 [GW633459A]
[1]; [14]
  cell death: No
[1]; PKIS compound screen
  z-scoreHeLa mean: 0.80
  z-scoreHeLa rep 1: 0.28
  z-scoreHeLa rep 2: 0.72
  z-scoreHeLa rep 3: 1.40
[1]; [10]
  cell count rep 1: 5085
  cell count rep 2: 5223
  cell count rep 3: 9893
[2]
  reduction in bacterial burden (CFU): 81%
[7]
  activity on bacterial burden (CFU): not active
[3]
  reduction in bacterial burden (CFU): reductions in CFU counts
[8]
  effect on CFU counts: reductions in CFU counts
[4]; up to 100 µM concentration
  effect on planktonic MRSA growth (direct antibiotic effect): not observe any direct antibacterial effects
[9]
  % inhibition at 1 µM HER2: 60%
